Key:
Format in all cases: functional
COLO 205 [1] = test: Induction of apoptosis in human COLO205 cells assessed as necrotic apoptosis cells level at 10 uM after 24 hrs by Annexin V/propidium iodide staining-based fluorescence microscopy
COLO 205 [2] = test: Induction of apoptosis in human COLO205 cells assessed as late apoptosis cells level at 10 uM after 24 hrs by Annexin V/propidium iodide staining-based fluorescence microscopy
COLO 205 [3] = test: Induction of apoptosis in human COLO205 cells assessed as early apoptosis cells level at 10 uM after 24 hrs by Annexin V/propidium iodide staining-based fluorescence microscopy
COLO 205 [4] = test: Induction of apoptosis in human COLO205 cells assessed as viable cells level at 10 uM after 24 hrs by Annexin V/propidium iodide staining-based fluorescence microscopy
COLO 205 [5] = test: Induction of apoptosis in human COLO205 cells assessed as DNA fragmentation at 10 uM
COLO 205 [6] = test: Induction of apoptosis in human COLO205 cells assessed as caspase 9 activation at 10 uM by FLICA
COLO 205 [7] = test: Induction of apoptosis in human COLO205 cells assessed as caspase 8 activation at 10 uM by FLICA
COLO 205 [8] = test: Induction of apoptosis in human COLO205 cells assessed as caspase 3/7 activation at 10 uM by FLICA
COLO 205 [9] = test: Induction of apoptosis in human COLO205 cells at 10 uM after 24 hrs by Annexin V/propidium iodide staining-based fluorescence microscopy

CC[C@@]1(O)C(=O)OCc2c1cc1n(c2=O)Cc2cc3ccccc3nc2-1 [CAMPTOTHECIN]
Activity (COLO 205 [1]): 0% | Activity (COLO 205 [2]): 17% | Activity (COLO 205 [3]): 42% | Activity (COLO 205 [4]): 40% | Activity (COLO 205 [5]): 80.5% | Activity (COLO 205 [6]): 19.5% | Activity (COLO 205 [7]): 23.5% | Activity (COLO 205 [8]): 62% | Activity (COLO 205 [9]): 53%

Reference: ChEMBL document CHEMBL3217615, “Novel 3,5-bis(arylidiene)-4-piperidone based monocarbonyl analogs of curcumin: anticancer activity evaluation and mode of action study” (2014)
